Test results reported in ChEMBL document CHEMBL1201862, “PubChem BioAssay data set” (2004).
Active and inactive are the calls of the source.

Legend:
Cytochrome P450 3A4 [1] = target: T1, Cytochrome P450 3A4 (Homo sapiens, UniProt P08684); conditions: Potency
Cytochrome P450 2C9 [2] = target: T2, Cytochrome P450 2C9 (Homo sapiens, UniProt P11712); conditions: Potency
Prothrombin = Prothrombin (Homo sapiens, UniProt P00734); test: Thrombin 1536 HTS Dose Response Confirmation. [Related pubchem assays: 1046 (Thrombin 1536 HTS; hits were confirmed in this assay)]; format: functional
Saccharomyces cerevisiae = test: S. cerevisiae Caspase-1/ASC signal blockers IC50, NALP1 inhibitor project selectivity test (AID 488863); format: functional, organism-based
[3] = target: NACHT, LRR and PYD domains-containing protein 1 (Homo sapiens, UniProt Q9C000); test: NALP1 inhibitors in yeast, dose response, luminescent (AID 488860); format: functional
Cytochrome P450 2C9 [4] = target: T2, Cytochrome P450 2C9
Cytochrome P450 3A4 [5] = target: T1, Cytochrome P450 3A4
Trypsin = Trypsin (Sus scrofa, UniProt P00761); test: trypsin protease activity blockade – biochemical, quenched peptide fluorescence, cherry-pick, selectivity assay for Rce1 protease inhibitor project, dose response (AID 488789)
Sequence of Trypsin (P00761 whole entry): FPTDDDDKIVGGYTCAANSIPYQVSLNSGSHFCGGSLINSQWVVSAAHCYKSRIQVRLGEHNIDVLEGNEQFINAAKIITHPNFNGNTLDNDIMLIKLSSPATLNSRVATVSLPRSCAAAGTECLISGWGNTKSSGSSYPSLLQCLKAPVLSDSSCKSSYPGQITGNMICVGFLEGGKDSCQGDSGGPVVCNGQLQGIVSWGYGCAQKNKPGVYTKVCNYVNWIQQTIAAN

CAAX prenyl protease 2 [6] = target: T3, CAAX prenyl protease 2 (Homo sapiens, UniProt Q9Y256); test: inhibition of Ras-converting CAAX protease Rce1 – biochemical, yeast membranes, quenched-peptide fluorescence, cherry-pick, dose response (AID 588849)
T3 sequence (Q9Y256 whole entry): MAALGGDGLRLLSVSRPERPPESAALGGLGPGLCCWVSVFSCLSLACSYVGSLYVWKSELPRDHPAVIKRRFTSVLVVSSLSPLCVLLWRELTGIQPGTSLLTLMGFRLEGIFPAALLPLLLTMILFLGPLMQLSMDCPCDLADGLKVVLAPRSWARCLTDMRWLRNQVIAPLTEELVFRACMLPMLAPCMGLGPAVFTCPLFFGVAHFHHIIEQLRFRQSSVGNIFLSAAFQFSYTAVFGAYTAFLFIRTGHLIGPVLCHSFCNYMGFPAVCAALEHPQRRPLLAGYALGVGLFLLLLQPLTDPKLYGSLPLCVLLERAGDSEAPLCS

[7] = test system: Streptococcus sp. 'group A'; test: Streptococcus pyogenes SK(-)GAS viability under kanamycin – luminescence, BacTiterGlo, confirmation, counter-screen for streptokinase expression inhibitor project, dose response (AID 1900); format: functional, organism-based
Streptokinase A = target: T4, Streptokinase A (Streptococcus pyogenes serotype M1, UniProt P10520); test: viability-normalized secreted streptokinase activity reduction – plasminogen activation absorbance, OD405, dose response (AID 1914); format: functional, Streptococcus pyogenes M1 GAS;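 further: secreted streptokinase activity via plasminogen activation per viability signal from cell pellet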
T4 sequence (P10520 whole entry): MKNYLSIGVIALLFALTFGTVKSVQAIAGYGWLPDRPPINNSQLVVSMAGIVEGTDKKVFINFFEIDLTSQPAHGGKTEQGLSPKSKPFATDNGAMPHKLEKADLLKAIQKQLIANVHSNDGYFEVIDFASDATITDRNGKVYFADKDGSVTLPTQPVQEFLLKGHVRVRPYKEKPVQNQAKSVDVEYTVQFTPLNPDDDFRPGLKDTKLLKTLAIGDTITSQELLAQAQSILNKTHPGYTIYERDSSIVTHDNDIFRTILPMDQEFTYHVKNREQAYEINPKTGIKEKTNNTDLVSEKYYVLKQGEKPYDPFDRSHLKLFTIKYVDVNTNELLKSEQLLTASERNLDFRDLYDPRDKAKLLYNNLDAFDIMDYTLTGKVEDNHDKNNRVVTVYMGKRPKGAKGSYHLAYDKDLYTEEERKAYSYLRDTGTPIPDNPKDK

Streptococcus = test: GAS UMAA2166 growth inhibition – luminescence, BacTiterGlo, counter-screen for streptokinase expression inhibitor project, dose response (AID 1915); format: functional, organism-based;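 further: potency for reduction of bacterial viability or growth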
CAAX prenyl protease 2 [8] = target: CAAX prenyl protease 2 (Saccharomyces cerevisiae S288c, UniProt Q03530); format: biochemical
Sequence of CAAX prenyl protease 2 (Saccharomyces cerevisiae S288c, UniProt Q03530) (Q03530 whole entry): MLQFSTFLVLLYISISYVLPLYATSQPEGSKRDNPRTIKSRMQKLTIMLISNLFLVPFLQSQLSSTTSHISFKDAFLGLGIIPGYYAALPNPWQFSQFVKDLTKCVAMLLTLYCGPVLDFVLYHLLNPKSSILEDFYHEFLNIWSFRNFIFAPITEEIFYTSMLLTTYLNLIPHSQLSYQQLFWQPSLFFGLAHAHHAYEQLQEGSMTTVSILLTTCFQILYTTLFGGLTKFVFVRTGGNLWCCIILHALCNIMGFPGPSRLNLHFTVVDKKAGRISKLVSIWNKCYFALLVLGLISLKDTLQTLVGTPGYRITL

[9] = target: Voltage-dependent T-type calcium channel subunit alpha-1H (Homo sapiens, UniProt O95180); format: functional;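 further: channel activity triggered by adding a high calcium stimulation buffer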
Sequence of Voltage-dependent T-type calcium channel subunit alpha-1H (O95180 whole entry): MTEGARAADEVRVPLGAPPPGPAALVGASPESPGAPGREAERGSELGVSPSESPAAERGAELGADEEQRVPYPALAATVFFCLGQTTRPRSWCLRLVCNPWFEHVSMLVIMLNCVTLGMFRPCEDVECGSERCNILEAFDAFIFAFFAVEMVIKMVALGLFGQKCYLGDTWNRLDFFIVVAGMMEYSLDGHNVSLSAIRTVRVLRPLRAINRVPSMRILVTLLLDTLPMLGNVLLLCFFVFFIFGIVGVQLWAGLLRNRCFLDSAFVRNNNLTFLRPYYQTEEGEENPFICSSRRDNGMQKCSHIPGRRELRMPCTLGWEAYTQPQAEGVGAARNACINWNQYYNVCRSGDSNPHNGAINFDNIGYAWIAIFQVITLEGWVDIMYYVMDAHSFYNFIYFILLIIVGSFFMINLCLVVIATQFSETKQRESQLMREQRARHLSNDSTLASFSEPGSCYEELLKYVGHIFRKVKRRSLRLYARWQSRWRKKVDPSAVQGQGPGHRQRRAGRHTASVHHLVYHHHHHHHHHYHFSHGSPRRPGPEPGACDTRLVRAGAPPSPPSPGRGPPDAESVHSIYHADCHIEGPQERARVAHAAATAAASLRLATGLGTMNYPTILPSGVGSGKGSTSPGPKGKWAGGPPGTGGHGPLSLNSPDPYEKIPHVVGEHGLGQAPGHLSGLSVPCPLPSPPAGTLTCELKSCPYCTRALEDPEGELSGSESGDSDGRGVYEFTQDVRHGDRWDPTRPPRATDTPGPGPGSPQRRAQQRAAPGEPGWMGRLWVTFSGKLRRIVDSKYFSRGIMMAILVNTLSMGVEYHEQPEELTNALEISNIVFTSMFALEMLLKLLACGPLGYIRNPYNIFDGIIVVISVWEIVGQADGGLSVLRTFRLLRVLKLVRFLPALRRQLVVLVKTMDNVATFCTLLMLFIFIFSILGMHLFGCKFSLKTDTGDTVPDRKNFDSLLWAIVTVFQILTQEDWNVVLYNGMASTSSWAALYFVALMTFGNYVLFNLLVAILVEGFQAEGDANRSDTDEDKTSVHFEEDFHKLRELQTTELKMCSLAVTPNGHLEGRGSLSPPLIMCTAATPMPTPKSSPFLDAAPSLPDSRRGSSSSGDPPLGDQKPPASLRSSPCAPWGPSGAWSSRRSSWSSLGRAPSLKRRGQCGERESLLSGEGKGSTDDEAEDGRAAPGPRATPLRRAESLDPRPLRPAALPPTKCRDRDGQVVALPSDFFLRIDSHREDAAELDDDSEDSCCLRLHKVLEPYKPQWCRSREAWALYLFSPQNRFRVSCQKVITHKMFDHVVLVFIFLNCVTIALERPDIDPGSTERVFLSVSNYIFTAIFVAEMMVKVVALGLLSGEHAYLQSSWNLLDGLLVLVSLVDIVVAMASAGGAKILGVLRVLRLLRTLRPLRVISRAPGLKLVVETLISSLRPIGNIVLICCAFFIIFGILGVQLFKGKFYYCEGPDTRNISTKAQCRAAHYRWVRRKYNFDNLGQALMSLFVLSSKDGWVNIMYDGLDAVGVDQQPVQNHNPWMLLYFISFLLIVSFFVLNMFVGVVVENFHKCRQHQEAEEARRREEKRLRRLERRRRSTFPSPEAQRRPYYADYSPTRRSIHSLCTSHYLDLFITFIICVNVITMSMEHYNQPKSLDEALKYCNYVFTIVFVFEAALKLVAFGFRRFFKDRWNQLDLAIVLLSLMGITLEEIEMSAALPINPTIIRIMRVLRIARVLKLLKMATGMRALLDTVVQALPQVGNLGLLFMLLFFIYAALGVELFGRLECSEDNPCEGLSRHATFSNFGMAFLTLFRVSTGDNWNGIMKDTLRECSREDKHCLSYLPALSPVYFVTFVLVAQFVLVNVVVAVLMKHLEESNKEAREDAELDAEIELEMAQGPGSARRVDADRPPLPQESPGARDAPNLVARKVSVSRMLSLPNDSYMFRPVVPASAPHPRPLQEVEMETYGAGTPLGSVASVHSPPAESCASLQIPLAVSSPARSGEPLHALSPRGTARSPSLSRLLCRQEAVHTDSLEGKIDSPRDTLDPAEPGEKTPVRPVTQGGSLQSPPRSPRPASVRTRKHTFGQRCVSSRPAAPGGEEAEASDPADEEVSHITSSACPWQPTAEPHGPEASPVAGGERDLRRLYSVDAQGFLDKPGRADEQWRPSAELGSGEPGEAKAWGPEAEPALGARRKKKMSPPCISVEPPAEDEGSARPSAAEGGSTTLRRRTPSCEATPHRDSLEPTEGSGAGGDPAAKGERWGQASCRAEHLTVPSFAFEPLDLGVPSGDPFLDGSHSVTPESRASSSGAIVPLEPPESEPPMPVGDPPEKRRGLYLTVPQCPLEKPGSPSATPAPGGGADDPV

Cytochrome P450 1A2 = target: T5, Cytochrome P450 1A2 (Homo sapiens, UniProt P05177);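 further: PubChem cytochrome P450 panel assay, CYP1A2 panel member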
T5 sequence (P05177 whole entry): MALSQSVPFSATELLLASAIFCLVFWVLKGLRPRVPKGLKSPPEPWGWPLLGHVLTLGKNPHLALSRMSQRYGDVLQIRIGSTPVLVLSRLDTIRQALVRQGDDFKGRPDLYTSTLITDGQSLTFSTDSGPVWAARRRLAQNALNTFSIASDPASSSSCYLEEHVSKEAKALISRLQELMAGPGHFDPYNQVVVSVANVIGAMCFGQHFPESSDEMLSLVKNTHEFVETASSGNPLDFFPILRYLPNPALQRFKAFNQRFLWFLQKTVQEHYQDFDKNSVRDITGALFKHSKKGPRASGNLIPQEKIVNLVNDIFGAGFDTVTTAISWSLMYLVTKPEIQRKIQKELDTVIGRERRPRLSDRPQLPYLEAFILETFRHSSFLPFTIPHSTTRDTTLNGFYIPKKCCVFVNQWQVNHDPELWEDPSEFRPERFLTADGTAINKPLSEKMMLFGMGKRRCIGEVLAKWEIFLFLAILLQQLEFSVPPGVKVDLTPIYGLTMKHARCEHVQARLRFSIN

Cytochrome P450 3A4 [10] = target: T1, Cytochrome P450 3A4; remark: listed apart in the source
Cytochrome P450 2C9 [11] = target: T2, Cytochrome P450 2C9; remark: listed apart in the source

T2 sequence (P11712 whole entry): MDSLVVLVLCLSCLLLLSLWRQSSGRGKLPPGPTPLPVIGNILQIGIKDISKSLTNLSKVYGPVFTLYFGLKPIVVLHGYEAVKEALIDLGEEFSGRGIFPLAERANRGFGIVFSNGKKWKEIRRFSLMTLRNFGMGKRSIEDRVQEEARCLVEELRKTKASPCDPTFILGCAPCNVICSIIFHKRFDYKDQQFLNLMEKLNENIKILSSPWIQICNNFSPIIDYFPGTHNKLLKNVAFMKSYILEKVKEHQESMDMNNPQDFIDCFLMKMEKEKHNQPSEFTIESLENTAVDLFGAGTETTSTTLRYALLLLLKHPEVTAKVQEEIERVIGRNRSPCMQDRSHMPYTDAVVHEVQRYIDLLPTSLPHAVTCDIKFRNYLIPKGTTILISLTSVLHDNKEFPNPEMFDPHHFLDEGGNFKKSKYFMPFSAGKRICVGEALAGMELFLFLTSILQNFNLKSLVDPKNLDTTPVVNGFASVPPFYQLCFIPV
T1 sequence (P08684 whole entry): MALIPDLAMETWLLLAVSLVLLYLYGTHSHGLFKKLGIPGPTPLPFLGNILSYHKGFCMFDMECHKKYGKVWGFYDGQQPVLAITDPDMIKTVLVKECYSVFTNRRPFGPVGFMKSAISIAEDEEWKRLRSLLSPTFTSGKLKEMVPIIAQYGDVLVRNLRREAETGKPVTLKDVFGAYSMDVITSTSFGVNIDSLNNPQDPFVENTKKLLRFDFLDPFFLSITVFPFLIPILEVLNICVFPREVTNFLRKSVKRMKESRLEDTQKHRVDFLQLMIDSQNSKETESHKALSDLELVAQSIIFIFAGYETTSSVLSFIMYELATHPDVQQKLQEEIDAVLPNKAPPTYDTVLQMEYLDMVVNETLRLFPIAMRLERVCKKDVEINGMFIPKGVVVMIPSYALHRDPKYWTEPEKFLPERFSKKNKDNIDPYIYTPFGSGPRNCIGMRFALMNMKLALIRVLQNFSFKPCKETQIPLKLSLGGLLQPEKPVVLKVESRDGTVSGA

COc1cc2c(cc1O)-c1c(O)c(OC)cc3c1[C@H](C2)N(C)CC3
AC50 (Cytochrome P450 3A4 [1]): 20 µM (inconclusive)
AC50 (Cytochrome P450 2C9 [2]): 31.6 µM (inconclusive)

Cc1ccc2c(c1)c1c3n2CCCNC3CCC1 (stereo not drawn)
IC50 (Prothrombin): > 50 µM (not active)
IC50 (Saccharomyces cerevisiae): 87.6 µM (active)
IC50 [3]: > 100 µM (inactive)

CC(=O)[C@@H]1CC[C@@H]2[C@@H]3CCC4=CC(=O)CC[C@@]4(C)[C@H]3CC[C@]21C
AC50 (Cytochrome P450 2C9 [2]): 39.8 µM (inconclusive)
AC50 (Cytochrome P450 2C9 [4]): 15.8 µM (inconclusive)
AC50 (Cytochrome P450 3A4 [5]): inconclusive

COc1cc2nc3c(O)n(CCN4CCOCC4)cnc-3c2cc1OC
AC50 (Trypsin): 16.1 µM (active)
AC50 (CAAX prenyl protease 2 [6]): 9.95 µM (active)

CCCCNc1c(-c2ccc(SC(C)CC)c(OC)c2)nc2ccc(C)cn12 (stereo not drawn)
EC50 [7]: 3.09 µM (active)
EC50 (Streptokinase A): 8.79 µM (active)
EC50 (Streptococcus): 10.2 µM (active)
AC50 (Trypsin): 2.63 µM (active)
AC50 (CAAX prenyl protease 2 [8]): 39.7 µM (active)
AC50 (CAAX prenyl protease 2 [6]): 32.5 µM (active)

O=S(=O)(Nc1ccc(S(=O)(=O)N2CCCCC2)cc1)c1ccc(Br)s1
EC50 [9]: 3.58 µM (active)

c1coc(-c2ccnc3ncnn23)c1
AC50 (CAAX prenyl protease 2 [8]): 24.5 µM (active)
AC50 (CAAX prenyl protease 2 [6]): 3.88 µM (active)

CN(C)c1ccc(/C=C2\SC(=S)N(Nc3ncc(C(F)(F)F)cc3Cl)C2=O)cc1
EC50 [9]: 2.86 µM (active)
AC50 (Cytochrome P450 1A2): 5.01 µM (inconclusive)
AC50 (Cytochrome P450 3A4 [10]): 14.1 µM (inconclusive)
AC50 (Cytochrome P450 2C9 [11]): inconclusive
